Laboratory results published in patent US11622961B2, “Combination therapies for treating cancer” (TESARO, INC., priority 2017, dated 2023).

Legend:
[1] = crystalline solid; cited from earlier work
[2] = system: primary Murine skin cancer model mSK6005; conditions: 50 mg/kg orally once daily for 21 days, compared to vehicle treated mice
Protocol: This example describes the effects of treatment with an agent that inhibits PARP signaling on tumor microenvironment in a mouse model of colorectal cancer. 50 mg/kg of niraparib or vehicle (0.5% methylcellulose) was orally administered once daily for 21 days to C57BL/6 mice inoculated with primary Murine skin cancer model mSK6005 fragment developed from Apc^Min/J heterozygous background. Formalin-fixed, paraffin-embedded (FFPE) blocks were prepared from tumor samples collected from the mice. Immunohistochemistry (IHC) staining was performed on FFPE samples to assess expression of various markers for immune response in the tumor samples. Five fields in each staining, without necrosis, were randomly selected and imaged at 20× magnification.
All the images were analyzed with Image J software. For CD4, CD8, and FoxP3 IHC, positive cells were counted and the average of 5 fields positive cell numbers was taken as the score value of each case. For Iba1 IHC, the percentage of Iba1 positive expression area or mean gray was measured and taken as the score value of each case. The percentages of tumor cells at different intensity levels were evaluated according to the calculation below. Total Score=(% at 0)×0+(% at 1)×1+(% at 2)×2+(% at 3)×3

MDA-MB-436 = system: MDA-MB-436
Text: FIG. 5A depicts percentage of Ki67-positive CD4 and CD8 positive cells among total CD3 population in control or niraparib treated mice as assessed by flow cytometry.
FIG. 5B depicts tumor volume in MDA-MB-436 huNOG-EXL mice treated with niraparib or control.

[3] = system: MDA-MB436 breast carcinoma cell line; experiment: MDA-MB436 HuNOG-EXL mice treated with niraparib and BLZ945: tumor volume; format: in vivo; conditions: 200 mg/kg BLZ945 5 day on and 2 day off plus 80 mg/kg niraparib tosylate once daily, oral; FIG. 6A, 6B (day 26)
Protocol: This example describes the effects of treatment with an agent that inhibits PARP together with an agent that regulates activity in the tumor microenvironment in a mouse model of breast cancer. HuNOG-EXL mice inoculated with MDA-MB436 breast carcinoma cell line were orally administered: i) 80 mg/kg of niraparib tosylate once daily; ii) 200 mg/kg BLZ945 (an anti-CSF-1R that binds to CSF1R and inhibits CSF1R-mediated signal transduction pathways in tumor associated macrophages) on a 5 day on and 2 day off schedule; or iii) 80 mg/kg of niraparib tosylate and 200 mg/kg BLZ945 with the same dosing schedule as the single agent groups. Control mice were administered an isotype control antibody twice weekly via intraperitoneal injection.
Tumor volumes were recorded twice in a week with a gap of 2-3 days in between two measurements until tumor volume reached 600-1000 mm^3 in the control mice.

CTLA-4 = target: T1, CTLA-4 (Homo sapiens, UniProt P16410); conditions: biopsy samples taken after tremelimumab treatment; cited from earlier work
T1 construct: host or cells: metastatic melanoma patients (endogenous CTLA-4)
T1 sequence (P16410 36-223): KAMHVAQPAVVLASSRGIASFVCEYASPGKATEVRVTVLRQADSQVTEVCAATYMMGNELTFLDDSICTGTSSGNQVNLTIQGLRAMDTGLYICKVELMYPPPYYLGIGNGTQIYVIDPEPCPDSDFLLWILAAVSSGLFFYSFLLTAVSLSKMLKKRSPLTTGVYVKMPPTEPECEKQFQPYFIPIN

## Cc1ccc(S(=O)(=O)O)cc1.NC(=O)c1cccc2cn(-c3ccc([C@@H]4CCCNC4)cc3)nc12.O [Niraparib tosylate monohydrate, (3 S)-3-[4-{7-(aminocarbonyl)-2H-indazol-2-yl}phenyl]piperidine tosylate monohydrate]
[1]
  hygroscopicity of drug substance: non-hygroscopic

## NC(=O)c1cccc2cn(-c3ccc([C@@H]4CCCNC4)cc3)nc12 [niraparib, (3S)-3-[4-{7-(aminocarbonyl)-2H-indazol-2-yl}phenyl]piperidine]
[2]
  expression of CD4 in tumor samples (IHC): Increased expression
  expression of CD8 in tumor samples (IHC): Increased expression
  expression of FoxP3 in tumor samples (IHC): Increased expression
  expression of Iba1 in tumor samples (IHC): Increased expression
MDA-MB-436; 35 mg/kg QD×5/week (FIG. 5B)
  tumor growth: reduction of tumor growth
MDA-MB-436; 35 mg/kg QD×5/week, flow cytometry (FIG. 5A)
  percentage of CD8+ cells: increased percentage of CD8+ cells

## CNC(=O)c1cc(Oc2ccc3nc(N[C@@H]4CCCC[C@H]4O)sc3c2)ccn1 [BLZ945]
[3]
  anti-tumor activity of the combination (tumor volume): enhances anti-tumor activity of niraparib

## tremelimumab: anti-CTLA-4 antibody
CTLA-4
  intratumoral infiltration by CD8+ cells: highly significant increase
